BindingDB's records for doi:10.1021/jm0490641 (Boehringer Ingelheim Pharma, 2005)

Biological target: Calcitonin gene-related peptide receptor (Callithrix jacchus)
Experiment: Affinity against calcitonin gene related peptide receptor (1 uM) in marmoset tissue homogenates using [125I]CGRP as radioligand after 180 minutes of incubation at pH 7.40
Conditions: pH 7.4

With NCCCC[C@@H](NC(=O)[C@H](Cc1cc(Br)c(O)c(Br)c1)NC(=O)N1CCC(n2c(=O)[nH]c3ccccc32)CC1)C(=O)N1CCN(c2ccncc2)CC1 [4-(2-Oxo-2,3-dihydro-benzoimidazol-1-yl)-piperidine-1-carboxylic acid [(S)-1-[(R)-5-amino-1-(4-pyridin-4-yl-piperazine-1-carbonyl)-pentylcarbamoyl]-2-(3,5-dibromo-4-hydroxy-phenyl)-ethyl]-amide] the IC50 was 2.7 nM.
